Experimental data: patent US20220218712A1, “TREATMENT OF ALZHEIMER'S DISEASE” (Saint Louis University, priority 2019, published 2022)

Columns and labels:
[1] = test system: SAMP8 mice; assay: Novel Object Recognition Protocol Test (NORPT); type: in vivo, mouse; settings: 12 month-old SAMP8 mice, 1 mg/kg IP every 48 hours for 5 weeks
Method: FIG. 1 depicts the effects of a selective A3AR agonist, MRS5980, on learning and memory in 12 month-old SAMP8 mice. The selective A3AR agonist, MRS5980 (1 mg/kg, IP) or vehicle (saline) was given every 48 hours for 5 weeks starting at 12 months of age. Behavioral testing began after 3 weeks of treatment. NORPT—the Novel Object Recognition Protocol Test is a memory task that involves the hippocampus when, as performed herein, the retention interval is 24 hours after initial exposure to the two like objects. Mice received three 5 minutes habituation trials in an empty apparatus separated by 2 hours, the day prior to entry of the objects. During the training session, the mouse was exposed to two similar objects (plastic frogs) which it was allowed to examine for 5 minutes. The apparatus and the objects were cleaned between each trial to remove odor cures. Twenty-four hours later, the mouse was exposed to one of the original objects and a new novel object (plastic bird) and the time spent examining the objects was recorded. The results are expressed as Discrimination index=(Total new−Total old)/Total new+Total old)]. The novel object was made out of the same material as the original object and of the same size, but a different shape. […] Number of attempts before first successful avoidance of the shock in T-maze and retention (memory) for the T-maze one-week later was also determined. […]

[2] = test system: SAMP8 mice; assay: T-maze shock avoidance, acquisition and one-week retention; type: in vivo, mouse; settings: 12 month-old SAMP8 mice, 1 mg/kg IP every 48 hours for 5 weeks
Method: FIG. 1 depicts the effects of a selective A3AR agonist, MRS5980, on learning and memory in 12 month-old SAMP8 mice. The selective A3AR agonist, MRS5980 (1 mg/kg, IP) or vehicle (saline) was given every 48 hours for 5 weeks starting at 12 months of age. Behavioral testing began after 3 weeks of treatment. NORPT—the Novel Object Recognition Protocol Test is a memory task that involves the hippocampus when, as performed herein, the retention interval is 24 hours after initial exposure to the two like objects. Mice received three 5 minutes habituation trials in an empty apparatus separated by 2 hours, the day prior to entry of the objects. During the training session, the mouse was exposed to two similar objects (plastic frogs) which it was allowed to examine for 5 minutes. The apparatus and the objects were cleaned between each trial to remove odor cures. Twenty-four hours later, the mouse was exposed to one of the original objects and a new novel object (plastic bird) and the time spent examining the objects was recorded. The results are expressed as Discrimination index=(Total new−Total old)/Total new+Total old)]. The novel object was made out of the same material as the original object and of the same size, but a different shape. The underlying concept of the NORPT is based on the tendency of mice to spend more time exploring new objects than familiar ones. Thus, the greater the retention/memory at 24 hours, the more time spent with the new object the higher the discrimination. […] Number of attempts before first successful avoidance of the shock in T-maze and retention (memory) for the T-maze one-week later was also determined. Retention was defined as number of trial to successfully avoid the shock 5 out of 6 consecutive trials. […] ANOVA followed by pairwise Tukey's post hoc test. Means±SEM; n=6-8/group; **p<0.01.

[3] = vs old vehicle treated controls

CNC(=O)[C@@]12C[C@@H]1[C@@H](n1cnc3c(NC)nc(C#Cc4ccc(Cl)s4)nc31)[C@H](O)[C@@H]2O [MRS5980]
Discrimination index (memory at 24 hours) in NORPT ([1]; old treated mice vs young mice): no difference between the young mice and the old A3 AR treated mice | Discrimination index (memory at 24 hours) in NORPT ([1]; retention interval 24 hours, vs vehicle treated controls, **p<0.01): significantly better memory than vehicle treated controls | T-maze learning and retention ([2]; old treated mice vs young vehicle treated controls): no difference between the young vehicle treated controls and the old A3AR treated mice | Number of attempts before first successful avoidance of the shock in T-maze (learning) [2, 3]: learned and remembered the T-maze better than the old vehicle treated controls | Retention (memory) for the T-maze one-week later, trials to avoid the shock 5 out of 6 consecutive trials [2, 3]: remembered the T-maze better than the old vehicle treated controls
